According to patent US20130210034A1, “COMPLEX PHOSPHOPROTEIN ACTIVATION PROFILES” (BECKMAN COULTER, INC., priority 2005, published 2013):
Several values for one entry are separate records, joined by “and”; a condition that tells them apart may be missing. Equal values may be shown once.

Legend:
Assay in all cases: Cytokine-stimulated phosphorylation in immunophenotypically defined cell populations from healthy donor BM (flow cytometry);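 on pERK S/N ratio: Phosphoprotein MFI normalized to lymphocyte MFI as internal negative control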;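 on pS6 S/N ratio: Phosphoprotein MFI normalized to lymphocyte MFI as internal negative control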;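 on pSTAT3 S/N ratio: Phosphoprotein MFI normalized to lymphocyte MFI as internal negative control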;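 on pSTAT5 S/N ratio: Phosphoprotein MFI normalized to lymphocyte MFI as internal negative control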
Format in all cases: cell-based, human
pSTAT5 = details: for pSTAT5 Percent (%) Responding Cells, Mean / pSTAT5 S/N ratio: healthy donor BM, mean ± SD
Experimental: (§1) Bone marrow (BM) samples were collected in 7.5 mL Iscove's modified Dulbecco's medium (IMDM) supplemented with 100U penicillin, 0.01 mg/mL streptomycin, and 70 μg/mL heparin sodium salt from 10 patients undergoing hip replacement surgery, who were otherwise healthy. These patients were from a pool of surgery patients, age 49 to 77, and represented […] patients. […] These BM samples were rinsed twice with IMDM to release cells, filtered using a 100 μm Nylon cell strainer to remove marrow particles, and centrifuged for at RT fro 7 minutes at 200 g. The cell pellet was washed twice with sterile IMDM to remove traces of fat and re-suspended in IMDM to a concentration of 3×10^7 cells/mL.
(§2) To assess the signal transduction response after growth factor simulation, a series comprising two sets of tubes including about 3×10^6 cells/100 μL were incubated at 37° C. for 30 minutes. After this pre-incubation period, tubes with then processes with either a stimulant or inhibitor. […] To examine the effects of protein phosphorylation inhibition, tubes were incubated with an inhibitor cocktail comprising 100 μM/100 μL UO126, 1 μM/100 μL LY294002, and 1 μM/100 μL rapamycin. One unstimulated tube receiving no stimulant or inhibitor was processed to assess basal levels of phospho-protein expression. After stimulation the cells were immediately fixed in 10% formaldehyde solution at 37° C. Pre-labeling with CD13, CD16 and CD64 antibodies was carried out 20 minutes prior to formaldehyde fixation. After fixation, one set of tubes was permeabilized without methanol for pAKT, pERK and pS6 staining and the other for 80% methanol permeabilized for pSTAT3 and pSTAT5 staining. After permeablization, the cells were washed in PBS with 2% BSA and blocked by re-suspended in 75 μL of PBS comprising 25% heat inactivated normal mouse serum, 25% normal rabbit serum. To stain cells with fluorescent conjugated monoclonal antibodies, samples were incubated on ice for 45 minutes in 100 μL of an antibody staining solution including either: 1) CD15-Pacific Orange, CD34-Phycoerythrin-Texas Red, CD117-Phycoerythrin-Cyanin 5.5, CD45-Allophycocyanin-Alexa Fluor 750 (or CD45-Pacific Orange, in which case CD15-Pacific Orange was omitted), pS6-Pacific Blue, pERK-Alexa Fluor 488 and pAKT-Alexa Fluor 647 or 2) CD15-Pacific Orange, CD34-Phycoerythrin-Texas Red, CD117-Phycoerythrin-Cyanin 5.5, CD45-Allophycocyanin-Alexa Fluor 750 or CD45-Pacific Blue, pSTAT3-Alexa Fluor 488 and pSTAT5-Phycoerythrin. The stained cells were washed twice with ice cold PBS containing 2% BSA and centrifuged at 800 g for 6 minutes at 4° C. The supernatant was discarded and cells re-suspended in 250 μL of chilled wash buffer for data acquisition. Stained cells were examined using either GALIOS flow cytometer (Beckman Coulter) or CYAN ADP (Beckman Coulter) equipped with 488 nm, 405 nm and 635 nm lasers to detect the degree of fluorescence. Data were analyzed using FCS Express (De Novo Software, CA) analysis software.
(§3) Specific phosphoprotein expression of pERK, pS6, pAKT, pSTAT5, and pSTAT3 was examined in seven discrete phenotypically defined populations based on 7-color immunophenotyping (FIG. 1). The percent of responding (phosphorprotein positive) cells for each of these populations was determined from individual single parameter histograms based on a fixed integration region set on the inhibitor treated control at about 3% positives.

pSTAT3 = details: healthy donor BM, mean ± SD
Experimental: as §1, §2, §3

pS6 = details: healthy donor BM, mean ± SD
Experimental: as §1, §2, §3

pERK = details: healthy donor BM, mean ± SD
Experimental: as §1, §2, §3

pAKT = details: for pAKT Percent (%) Responding Cells, Mean / pAKT S/N ratio: healthy donor BM, mean ± SD
Experimental: as §1, §2, §3

Substance: Granulocyte-Macrophage Colony-Stimulating Factor [GM-CSF]
- pSTAT5 Percent (%) Responding Cells, Mean (pSTAT5; CD34^+ (CD34^+/CD117^+ cells)): 74.7%
- pSTAT5 S/N ratio (pSTAT5; CD34^+ (CD34^+/CD117^+ cells)): 19.8 ± 9.7
- pSTAT5 Percent (%) Responding Cells, Mean (pSTAT5; CD117^+ (CD34^−/CD117^+ cells)): 58.2 ± 11.8%
- pSTAT5 Percent (%) Responding Cells, Mean (pSTAT5; G2, intermediate myeloid cells): 98.8 ± 0.4%
- pSTAT5 S/N ratio (pSTAT5; G2, intermediate myeloid cells): 18.3 ± 5.5
- pSTAT5 S/N ratio (pSTAT5; Mono, monocytes): 14.7 ± 4.5
- pSTAT5, Normal Sample (pSTAT5; Table 7 comparison value, matches percent responding CD34^+ cells of Tables 1-5): 74.7 and 75.1
- pSTAT3 Percent (%) Responding Cells, Mean (pSTAT3; CD34^+ (CD34^+/CD117^+ cells)): 10.4 ± 7.9%
- pSTAT3 S/N ratio (pSTAT3; CD34^+ (CD34^+/CD117^+ cells)): 1.7 ± 0.2
- pSTAT3 Percent (%) Responding Cells, Mean (pSTAT3; CD117^+ (CD34^−/CD117^+ cells)): 7.9 ± 8.7%
- pSTAT3 S/N ratio (pSTAT3; CD117^+ (CD34^−/CD117^+ cells)): 2.6 ± 0.8
- pSTAT3 Percent (%) Responding Cells, Mean (pSTAT3; G1, immature myeloid cells): 58.7% and 58.7 ± 39.9%
- pSTAT3 S/N ratio (pSTAT3; G1, immature myeloid cells): 6.8 ± 2.5
- pSTAT3 Percent (%) Responding Cells, Mean (pSTAT3; G2, intermediate myeloid cells): 59.1 ± 30.4%
- pSTAT3 S/N ratio (pSTAT3; G2, intermediate myeloid cells): 7.3 ± 2.1
- pSTAT3 Percent (%) Responding Cells, Mean (pSTAT3; G3, mature myeloid cells): 76.0 ± 30.8%
- pSTAT3 S/N ratio (pSTAT3; G3, mature myeloid cells): 8.8 ± 2.7
- pSTAT3 S/N ratio (pSTAT3; Mono, monocytes): 2.3 ± 0.3
- pS6 Percent (%) Responding Cells, Mean (pS6; CD34^+ (CD34^+/CD117^+ cells)): 60.1% and 60.1 ± 14.1%
- pS6 S/N ratio (pS6; CD34^+ (CD34^+/CD117^+ cells)): 35.7 ± 31.7
- pS6 Percent (%) Responding Cells, Mean (pS6; CD117^+ (CD34^−/CD117^+ cells)): 38.5 ± 11.5%
- pS6 S/N ratio (pS6; CD117^+ (CD34^−/CD117^+ cells)): 52.7 ± 44.0
- pS6 Percent (%) Responding Cells, Mean (pS6; G1, immature myeloid cells): 3.4 ± 1.3%
- pS6 S/N ratio (pS6; G1, immature myeloid cells): 5.1 ± 3.2
- pS6 Percent (%) Responding Cells, Mean (pS6; G2, intermediate myeloid cells): 11.3 ± 15.9%
- pS6 S/N ratio (pS6; G2, intermediate myeloid cells): 5.7 ± 3.7
- pS6 Percent (%) Responding Cells, Mean (pS6; G3, mature myeloid cells): 8.3 ± 7.0%
- pS6 S/N ratio (pS6; G3, mature myeloid cells): 5.7 ± 3.6
- pS6 Percent (%) Responding Cells, Mean (pS6; Mono, monocytes): 76.9 ± 11.8%
- pS6 S/N ratio (pS6; Mono, monocytes): 25.8 ± 20.8
- pERK Percent (%) Responding Cells, Mean (pERK; CD34^+ (CD34^+/CD117^+ cells)): 30.1% and 30.1 ± 11.5%
- pERK S/N ratio (pERK; CD34^+ (CD34^+/CD117^+ cells)): 10.6 ± 4.4
- pERK S/N ratio (pERK; CD117^+ (CD34^−/CD117^+ cells)): 3.8 ± 0.4
- pERK Percent (%) Responding Cells, Mean (pERK; G1, immature myeloid cells): 53.9% and 53.9 ± 20.8%
- pERK S/N ratio (pERK; G1, immature myeloid cells): 6.2 ± 1.8
- pERK Percent (%) Responding Cells, Mean (pERK; G2, intermediate myeloid cells): 91.5 ± 16.0%
- pERK S/N ratio (pERK; G2, intermediate myeloid cells): 9.4 ± 2.4
- pERK Percent (%) Responding Cells, Mean (pERK; G3, mature myeloid cells): 91.5% and 90.7 ± 15.0%
- pERK S/N ratio (pERK; G3, mature myeloid cells): 11.3 ± 3.1
- pERK Percent (%) Responding Cells, Mean (pERK; Mono, monocytes): 52.0 ± 22.6%
- pERK S/N ratio (pERK; Mono, monocytes): 11.4 ± 4.5
- pAKT Percent (%) Responding Cells, Mean (pAKT; CD34^+ (CD34^+/CD117^+ cells)): 22.5 ± 23.4%
- pAKT S/N ratio (pAKT; CD34^+ (CD34^+/CD117^+ cells)): 3.2 ± 3.3
- pAKT Percent (%) Responding Cells, Mean (pAKT; CD117^+ (CD34^−/CD117^+ cells)): 13.3 ± 23.7%
- pAKT S/N ratio (pAKT; CD117^+ (CD34^−/CD117^+ cells)): 2.2 ± 1.3
- pAKT Percent (%) Responding Cells, Mean (pAKT; G1, immature myeloid cells): 11.2 ± 19.8%
- pAKT S/N ratio (pAKT; G1, immature myeloid cells): 3.0 ± 1.6
- pAKT Percent (%) Responding Cells, Mean (pAKT; G2, intermediate myeloid cells): 17.6 ± 26.1%
- pAKT S/N ratio (pAKT; G2, intermediate myeloid cells): 3.2 ± 1.6
- pAKT Percent (%) Responding Cells, Mean (pAKT; G3, mature myeloid cells): 17.5 ± 26.0%
- pAKT S/N ratio (pAKT; G3, mature myeloid cells): 3.7 ± 1.9
- pAKT Percent (%) Responding Cells, Mean (pAKT; Mono, monocytes): 17.6 ± 27.3%
- pAKT S/N ratio (pAKT; Mono, monocytes): 3.6 ± 2.3
- pAKT, Normal Sample (pAKT; Table 7 comparison value): 16.2
